Data as given in US20140179624A1, “CYTOPROTECTIVE DERIVATIVES OF AVICIN D AND METHODS OF MAKING AND USING THEREOF” (Research Development Foundation, priority 2012, published 2014).

Tests used:
[1] = system: NF-κB; test: Inhibition of NF-κB activation (FIG. 2A); assay type: cell-based; settings: compared with dexamethasone
[2] = system: IL-6; test: Expression of constitutive and TNF-induced IL-6 (FIG. 2B); assay type: cell-based
[3] = system: NF-κB; test: TNF-induced p(IL6-κB)350hu.IL6P-Luc luciferase reporter in HEK 293T cells with and without GR (FIG. 3); assay type: cell-based
From the text: FIG. 3 is graph showing the expression of glucocorticoid receptor (GR) in HEK293T cells with and without GR.
However, TNF-induced activation of p(IL6-κB)350hu.IL6P-Luc was inhibited by both avicin D and Dex in HEK 293T cells transfected with GR (FIG. 3). […] This observation supports the notion that avicins are not able to induce GR transactivation.

[4] = target: T1, glucocorticoid receptor (GR) (Homo sapiens, UniProt P04150); test: Phosphorylation of GR Ser-211 (FIG. 4); assay type: cell-based; settings: even after 16 hours
T1 sequence (P04150 1-777): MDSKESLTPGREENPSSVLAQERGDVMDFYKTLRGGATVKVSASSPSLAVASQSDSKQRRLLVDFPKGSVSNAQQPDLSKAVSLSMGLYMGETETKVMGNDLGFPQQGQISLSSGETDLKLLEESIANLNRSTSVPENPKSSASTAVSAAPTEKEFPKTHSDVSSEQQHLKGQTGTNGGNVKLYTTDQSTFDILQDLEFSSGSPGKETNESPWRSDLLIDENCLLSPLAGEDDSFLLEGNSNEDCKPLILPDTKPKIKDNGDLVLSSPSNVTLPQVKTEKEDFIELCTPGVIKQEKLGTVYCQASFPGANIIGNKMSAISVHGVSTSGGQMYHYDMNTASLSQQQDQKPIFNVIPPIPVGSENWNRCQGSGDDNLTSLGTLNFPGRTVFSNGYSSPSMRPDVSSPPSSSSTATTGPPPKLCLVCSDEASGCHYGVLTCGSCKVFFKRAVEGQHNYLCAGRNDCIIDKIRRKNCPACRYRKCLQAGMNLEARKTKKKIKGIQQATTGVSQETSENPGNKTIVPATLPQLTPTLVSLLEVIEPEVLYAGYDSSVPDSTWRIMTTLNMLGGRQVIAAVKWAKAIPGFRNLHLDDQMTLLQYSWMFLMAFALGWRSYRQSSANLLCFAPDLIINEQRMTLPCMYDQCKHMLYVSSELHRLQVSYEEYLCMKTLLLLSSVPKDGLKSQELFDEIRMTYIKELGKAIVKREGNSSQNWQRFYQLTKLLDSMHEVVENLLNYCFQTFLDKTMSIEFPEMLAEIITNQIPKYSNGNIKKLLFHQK

[5] = system: 3T3-L1 cells; test: Adipogenesis in 3T3-L1 cells; assay type: cell-based
[6] = system: human preadipocytes; test: Differentiation of human preadipocytes to mature adipocytes; assay type: cell-based
[7] = system: chemotaxis; test: Inhibition of chemotaxis; assay type: cell-based; settings: preliminary data
From the text: The compositions described herein contain an effective amount of the one or more avicin derivatives. The amount to be administered can be readily determined by the attending physician based on a variety of factors including, but not limited to, age of the patient, weight of the patient, disease or disorder to be treated, presence of a pre-existing condition, and dosage form to be administered (e.g., immediate release versus modified release dosage form). Typically, the effective amount is from about 0.1 mg/kg/day to about 100 mg/kg/day, more preferably from 0.1 mg/kg/day to 50 mg/kg/day, more preferably from 0.1 mg/kg/day to 25 mg/kg/day, and most preferably from 0.1 mg/kg/day to 10 mg/kg/day. Dosages greater or less than this may be administered depending on the diseases or disorder to be treated.

[8] = system: cell cytotoxicity; settings: screen of Acacia victoriae compounds; U.S. Pat. No. 6,444,233; cited from earlier work
[9] = system: NF-κB; settings: redox-dependant manner; cited from earlier work
[10] = system: NF-E2-related factor 2 (Nrf2); settings: redox-dependant manner; cited from earlier work

SMILES	activation of NF-κB [1]	expression of constitutive and TNF-induced IL-6 [2]	TNF-induced activation of p(IL6-κB)350hu.IL6P-Luc ([3]; HEK 293T cells transfected with GR)	luciferase activity ([3]; wild type HEK 293T cells (without GR))	phosphorylation of Ser-211 [4]	PKA-mediated CREB activity [5]	adipolysis and adipocyte apoptosis [5]	preadipocyte differentiation [5]	adipogenesis ([5]; 3T3-L1 cells)	intracellular triglyceride level ([5]; 3T3-L1 cells)	expression and secretion of adiponectin ([5]; in adipocytes)	differentiation of human preadipocytes to mature adipocytes [6]	intracellular triglyceride levels [6]	inhibition of chemotaxis [7]	induction of cell cytotoxicity [8]	NF-κB inhibition [9]	Nrf2 activation [10]
C=C[C@](C)(O)CC/C=C(\CO)C(=O)O[C@H]1[C@H](O)[C@@H](O)[C@H](O[C@@](C)(C=C)CC/C=C(\CO)C(=O)O[C@H]2C[C@]3(C(=O)O[C@@H]4O[C@H](CO)[C@@H](O)[C@H](O)[C@H]4O[C@@H]4O[C@@H](C)[C@H](O[C@@H]5O[C@@H](CO)[C@H](O)[C@H]5O)[C@@H](O[C@@H]5O[C@H](CO)[C@@H](O)[C@H](O)[C@H]5O)[C@H]4O)[C@H](O)C[C@]4(C)C(=CC[C@@H]5[C@@]6(C)CC[C@H](O[C@@H]7O[C@H](CO[C@@H]8O[C@H](C)[C@H](O)[C@H](O)[C@H]8O[C@@H]8OC[C@@H](O)[C@H](O)[C@H]8O)[C@@H](O)[C@H](O)[C@H]7NC(C)=O)C(C)(C)[C@@H]6CC[C@]54C)[C@@H]3CC2(C)C)O[C@@H]1C [Avicin D]	inhibits activation of NF-κB in a similar manner to dexamethasone	suppresses the expression of both constituitive and TNF-induced IL-6	inhibited	neither avicin D nor dexamethasone had an effect	does not enhance phosphorylation of Ser-211	inhibited PKA-mediated CREB activity	did not affect	suppressed preadipocyte differentiation	inhibit adipogenesis	reduce intracellular triglyceride level in a dose-dependent manner	increased the expression and secretion of adiponectin	inhibited the differentiation of human preadipocytes to mature adipocytes	reduced intracellular triglyceride levels	effective at inhibiting chemotaxis at picomolar and nanomolar concentrations	significant activity	inhibit NF-κB	activate NF-E2-related factor 2 (Nrf2)
C=C[C@](C)(O)CC/C=C(\C)C(=O)O[C@H]1[C@H](O)[C@@H](O)[C@H](O[C@@](C)(C=C)CC/C=C(\CO)C(=O)O[C@H]2C[C@]3(C(=O)O[C@@H]4O[C@H](CO)[C@@H](O)[C@H](O)[C@H]4O[C@@H]4O[C@@H](C)[C@H](O[C@@H]5O[C@@H](CO)[C@H](O)[C@H]5O)[C@@H](O[C@@H]5O[C@H](CO)[C@@H](O)[C@H](O)[C@H]5O)[C@H]4O)[C@H](O)C[C@]4(C)C(=CC[C@@H]5[C@@]6(C)CC[C@H](O[C@@H]7O[C@H](CO[C@@H]8O[C@H](C)[C@H](O)[C@H](O)[C@H]8O[C@@H]8OC[C@@H](O)[C@H](O)[C@H]8O)[C@@H](O)[C@H](O)[C@H]7NC(C)=O)C(C)(C)[C@@H]6CC[C@]54C)[C@@H]3CC2(C)C)O[C@@H]1C [avicin G]	–	–	–	–	–	–	–	–	–	–	–	–	–	–	significant activity	–	–
